Where two headings read alike, the source gives them in different places.
Assays:
MV4-11 tumors = assay: MV4-11 subcutaneous mouse xenograft efficacy; type: in vivo, mice; conditions: for tumor regression (TR): transient
Protocol: Female C.B.-17 SCID mice and female nude rats were purchased from Charles River Laboratories. […]. All xenograft studies were conducted at our Association for the Assessment and Accreditation of Laboratory Animal Care accredited facility in Waltham, MA in accordance with ethical regulations described in the guidelines established by the internal Institutional Animal Care and Use Committee. […]. In mice, drugs were dosed intravenously in a volume of 5 mL kg^-1 except for venetoclax that was dosed orally in a volume of 10 mL kg^-1. […]. Ten million MV4-11 cells were injected subcutaneously in the right flank of rats in a volume of 0.1 mL. Tumor volumes (measured by caliper), animal body weight, and tumor condition were recorded twice weekly for the duration of the study. The tumor volume was calculated using the formula: length (mm) × width (mm)^2[…]. For efficacy studies, growth inhibition from the start of treatment was assessed by comparison of the differences in tumor volume between control and treated groups. Statistical significance was evaluated using non-parametric, unpaired, two-tailed t-test. For efficacy studies, animals were randomized based on tumor volumes using stratified sampling, and enrolled into control and treatment groups. Dosing began when mean tumor size reached ~230 mm^3 in mice and 900 mm^3 in rats. Mice were euthanized once tumor size reached 2000 mm^3. Mice were excluded from the study upon body weight loss > 10% of the body weight at the initiation of the study. For pharmacokinetic analysis, plasma samples were precipitated and diluted with acetonitrile containing internal standard and analyzed by LC–MS/MS versus a calibration curve of known concentrations.

OCIAML5 = assay: Caspase-3/7 activation assay; type: cell-based; conditions: Homo sapiens, OCI-AML-5, 6 h
Protocol: (§1) Cells were plated at 3000 cells/well in 384-well white plates in corresponding cell growth media. […] Caspase-3/7 activation was subsequently determined using a Caspase-Glo 3/7 Reagent (Promega) and viability was assayed using the CellTiter-Glo Reagent (Promega) as described in manufacturer’s instructions. Dose–response curves for caspase-3/7 activation and viability were plotted and analyzed (including EC50 and GI50 determination) using GraphPad Prism.

WM2664 = assay: Cell viability assay; type: cell-based; conditions: Homo sapiens, WM 266-4, 24 h; WM2664 (Skin); read-out: AZD5991 24h GI50
Protocol: as §1

THP-1 = assay: Cell viability assay; type: cell-based; conditions: Homo sapiens, 24 h; THP-1 (AML); read-out: AZD5991 24h GI50
Protocol: as §1

MV411 = assay: Caspase-3/7 activation assay; type: cell-based; conditions: Homo sapiens
Protocol: as §1

ZR751 = assay: Cell viability assay; type: cell-based; conditions: Homo sapiens, ZR-75-1, 24 h; ZR751 (Breast); read-out: AZD5991 24h GI50
Protocol: as §1

OCILY7 = assay: Cell viability assay; type: cell-based; conditions: Homo sapiens, OCI-Ly7, 24 h; OCILY7 (NHL); read-out: AZD5991 24h GI50
Protocol: as §1

MOLM13 = assay: Caspase-3/7 activation assay; type: cell-based; conditions: Homo sapiens, MOLM-13, 6 h
Protocol: as §1

H1975 = assay: Cell viability assay; type: cell-based; conditions: Homo sapiens, NCI-H1975, 24 h; H1975 (Lung); read-out: AZD5991 24h GI50
Protocol: as §1

SKBR3 = assay: Cell viability assay; type: cell-based; conditions: Homo sapiens, SK-BR-3, 24 h; SKBR3 (Breast); read-out: AZD5991 24h GI50
Protocol: as §1

KMS26 = assay: Cell viability assay; type: cell-based; conditions: KMS-26, 24 h; KMS26 (MM); read-out: AZD5991 24h GI50
Protocol: as §1

RCPIWM1 = assay: Cell viability assay; type: cell-based; conditions: 24 h; RCPIWM1 (NHL); read-out: AZD5991 24h GI50
Protocol: as §1

[1] = system: Eμ-Myc lymphoma cells stably expressing human Bcl-xL; assay: Apoptosis induction in Eμ-Myc lymphoma cells; conditions: overexpression of Bcl-xL, 24 h
Text: The retroviral plasmids to express human Bcl-2 family members in murine Eμ-Myc lymphoma cells are MSCV-hMCL-1-GFP, MSCV-hBCL-2-GFP, MSCV-hBCL-XL-GFP, MSCV-hBFL-1/A1-GFP, and MSCV-hBCL-w-GFP. To produce viruses, constructs of interest were co-transfected into HEK293T cells with the plasmid encoding the packaging viruses (p-CL-AMPHO provided by Phillip Darcy from Peter MacCallum Cancer Center, Melbourne, Australia) using standard calcium phosphate transient transfection technique. The retroviruses were harvested, filtered and used to infect target cells following standard procedures.
Samples were then centrifuged, washed twice with PBS and analyzed by flow cytometry in a BD LSRFortessa. FACSDiva software was used for data collection and FlowJo software for data analysis.

Raji = assay: Cell viability assay; type: cell-based; conditions: Homo sapiens, 24 h; Raji (NHL); read-out: AZD5991 24h GI50
Protocol: as §1

OV90 = assay: Cell viability assay; type: cell-based; conditions: Homo sapiens, OV-90, 24 h; OV90 (Others); read-out: AZD5991 24h GI50
Protocol: as §1

RT4 = assay: Cell viability assay; type: cell-based; conditions: Homo sapiens, RT-4, 24 h; RT4 (Urology); read-out: AZD5991 24h GI50
Protocol: as §1

MEWO = assay: Cell viability assay; type: cell-based; conditions: Homo sapiens, 24 h; MEWO (Skin); read-out: AZD5991 24h GI50
Protocol: as §1

OCILY3 = assay: Cell viability assay; type: cell-based; conditions: Homo sapiens, OCI-Ly3, 24 h; OCILY3 (NHL); read-out: AZD5991 24h GI50
Protocol: as §1

REC1 = assay: Cell viability assay; type: cell-based; conditions: Homo sapiens, 24 h; REC1 (NHL); read-out: AZD5991 24h GI50
Protocol: as §1

MINO = assay: Cell viability assay; type: cell-based; conditions: Homo sapiens, 24 h; MINO (NHL); read-out: AZD5991 24h GI50
Protocol: as §1

Sudhl4 = assay: Cell viability assay; type: cell-based; conditions: Homo sapiens, SU-DHL-4, 24 h; Sudhl4 (NHL); read-out: AZD5991 24h GI50
Protocol: as §1

MCF7 = assay: Cell viability assay; type: cell-based; conditions: Homo sapiens, 24 h; MCF7 (Breast); read-out: AZD5991 24h GI50
Protocol: as §1

HMCB = assay: Cell viability assay; type: cell-based; conditions: Homo sapiens, 24 h; HMCB (Skin); read-out: AZD5991 24h GI50
Protocol: as §1

MDAMB468 = assay: Cell viability assay; type: cell-based; conditions: Homo sapiens, MDA-MB-468, 24 h; MDAMB468 (Breast); read-out: AZD5991 24h GI50
Protocol: as §1

Cc1c2c(nn1C)CSCc1cc(n(C)n1)CSc1cc(c3ccccc3c1)OCCCc1c(C(=O)O)n(C)c3c-2c(Cl)ccc13 (atropisomer, axis not shown; (Ra)) [(Ra)-7]
tumor regression (TR) (MV4-11 tumors; single i.v. dose 10 mg kg^−1, 7 days after treatment): 66%
tumor regression (TR) (MV4-11 tumors; single i.v. dose 30 mg kg^−1, 7 days after treatment): 93%
mice with complete TR (MV4-11 tumors; single i.v. dose 100 mg kg^−1): six out of six
EC50 (OCIAML5; read-out: 6h caspase EC50, OCIAML5, single agent): > 333 nM
EC50 (OCIAML5; read-out: AZD5991 6h EC50, OCIAML5 (AML), caspase 3/7 activation): > 30000 nM
GI50 (WM2664): 13200 nM
GI50 (THP-1): 76 nM
EC50 (MV411; MV4-11, 6 h, read-out: 6h caspase EC50, MV411, single agent): 56.3 nM
EC50 (MV411; MV4-11, 6 h, read-out: AZD5991 6h EC50, MV411 (AML), caspase 3/7 activation): 25 nM
EC50 (MV411; MV4-11, caspase activation, Mcl-1-dependent cell line, read-out: MV4-11, EC50): 24 nM
EC50 (MV411; MV4-11, mean of log transformed data, read-out: MV4-11 caspase pEC50 (converted)): 24 nM
GI50 (ZR751): 21200 nM
GI50 (OCILY7): 24 nM
EC50 (MOLM13; read-out: 6h caspase EC50, MOLM13, single agent): 108 nM
EC50 (MOLM13; read-out: AZD5991 6h EC50, MOLM13 (AML), caspase 3/7 activation): 63 nM
GI50 (H1975): 17600 nM
GI50 (SKBR3): 118 nM
GI50 (KMS26): 141 nM
GI50 (RCPIWM1): 20 nM
apoptosis-inducing activity [1]: blocked
GI50 (Raji): 167 nM
GI50 (OV90): 22100 nM
GI50 (RT4): 2400 nM
GI50 (MEWO): 7680 nM
GI50 (OCILY3): 6190 nM
GI50 (REC1): 728 nM
GI50 (MINO): 149 nM
GI50 (Sudhl4): 127 nM
GI50 (MCF7): 1350 nM
GI50 (HMCB): 3000 nM
GI50 (MDAMB468): 540 nM
